The kinase profiling compilation of Christmann-Franck et al. (2016)

What was measured:
Assay in all cases: KINOMEscan competition binding
Conditions in all cases: compound 10.0 µM
ACVR2A (human) = ACVR2A (human) (UniProt P27037)
ANKK1 (human) = ANKK1 (human) (UniProt Q8NFD2)
AURKC (human) = AURKC (human) (UniProt Q9UQB9)
CAMK2D (human) = CAMK2D (human) (UniProt Q13557)
CDKL1 (human) = CDKL1 (human) (UniProt Q00532)
CPK1 (P.falciparum) = system: CPK1 (P.falciparum)
DDR1 (human) = DDR1 (human) (UniProt Q08345)
DSTYK (human) = DSTYK (human) (UniProt Q6XUX3)
DYRK1B (human) = DYRK1B (human) (UniProt Q9Y463)
[1] = system: EGFR (human), P00533 [A750P; 747-749 del]
EPHB6 (human) = EPHB6 (human) (UniProt O15197)
FLT1 (human) = FLT1 (human) (UniProt P17948)
FLT4 (human) = FLT4 (human) (UniProt P35916)
HIPK4 (human) = HIPK4 (human) (UniProt Q8NE63)
IRAK1 (human) = IRAK1 (human) (UniProt P51617)
KDR (human) = KDR (human) (UniProt P35968)
LIMK2 (human) = LIMK2 (human) (UniProt P53671)
LRRK2 (human) = LRRK2 (human) (UniProt Q5S007)
MAP2K2 (human) = MAP2K2 (human) (UniProt P36507)
MAP2K4 (human) = MAP2K4 (human) (UniProt P45985)
MAP2K7 (human) = MAP2K7 (human) (UniProt O14733)
MAP3K4 (human) = MAP3K4 (human) (UniProt Q9Y6R4)
MAPK3 (human) = MAPK3 (human) (UniProt P27361)
MAPK8 (human) = MAPK8 (human) (UniProt P45983)
MKNK2 (human) = MKNK2 (human) (UniProt Q9HBH9)
NEK9 (human) = NEK9 (human) (UniProt Q8TD19)
PAK7 (human) = PAK7 (human) (UniProt Q9P286)
PIK3C2G (human) = PIK3C2G (human) (UniProt O75747)
PIK3CG (human) = PIK3CG (human) (UniProt P48736)
PKN1 (human) = PKN1 (human) (UniProt Q16512)
PRKAA1 (human) = PRKAA1 (human) (UniProt Q13131)
PRKAA2 (human) = PRKAA2 (human) (UniProt P54646)
PRKCI (human) = PRKCI (human) (UniProt P41743)
PRKD1 (human) = PRKD1 (human) (UniProt Q15139)
RIOK1 (human) = RIOK1 (human) (UniProt Q9BRS2)
RIPK2 (human) = RIPK2 (human) (UniProt O43353)
SRPK2 (human) = SRPK2 (human) (UniProt P78362)
TNK2 (human) = TNK2 (human) (UniProt Q07912)
TYRO3 (human) = TYRO3 (human) (UniProt Q06418)
YES1 (human) = YES1 (human) (UniProt P07947)

Chain of AURKC (human) (Q9UQB9 whole entry, looked up): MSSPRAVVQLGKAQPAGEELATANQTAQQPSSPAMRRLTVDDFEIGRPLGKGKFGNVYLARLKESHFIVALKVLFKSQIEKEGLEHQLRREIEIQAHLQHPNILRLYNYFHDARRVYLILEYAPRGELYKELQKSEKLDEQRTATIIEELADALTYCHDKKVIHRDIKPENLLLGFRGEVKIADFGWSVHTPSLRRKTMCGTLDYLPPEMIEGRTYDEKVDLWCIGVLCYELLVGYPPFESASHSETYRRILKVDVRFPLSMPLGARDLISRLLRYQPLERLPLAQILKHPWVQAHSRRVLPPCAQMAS
Chain of PKN1 (human) (Q16512 whole entry, looked up): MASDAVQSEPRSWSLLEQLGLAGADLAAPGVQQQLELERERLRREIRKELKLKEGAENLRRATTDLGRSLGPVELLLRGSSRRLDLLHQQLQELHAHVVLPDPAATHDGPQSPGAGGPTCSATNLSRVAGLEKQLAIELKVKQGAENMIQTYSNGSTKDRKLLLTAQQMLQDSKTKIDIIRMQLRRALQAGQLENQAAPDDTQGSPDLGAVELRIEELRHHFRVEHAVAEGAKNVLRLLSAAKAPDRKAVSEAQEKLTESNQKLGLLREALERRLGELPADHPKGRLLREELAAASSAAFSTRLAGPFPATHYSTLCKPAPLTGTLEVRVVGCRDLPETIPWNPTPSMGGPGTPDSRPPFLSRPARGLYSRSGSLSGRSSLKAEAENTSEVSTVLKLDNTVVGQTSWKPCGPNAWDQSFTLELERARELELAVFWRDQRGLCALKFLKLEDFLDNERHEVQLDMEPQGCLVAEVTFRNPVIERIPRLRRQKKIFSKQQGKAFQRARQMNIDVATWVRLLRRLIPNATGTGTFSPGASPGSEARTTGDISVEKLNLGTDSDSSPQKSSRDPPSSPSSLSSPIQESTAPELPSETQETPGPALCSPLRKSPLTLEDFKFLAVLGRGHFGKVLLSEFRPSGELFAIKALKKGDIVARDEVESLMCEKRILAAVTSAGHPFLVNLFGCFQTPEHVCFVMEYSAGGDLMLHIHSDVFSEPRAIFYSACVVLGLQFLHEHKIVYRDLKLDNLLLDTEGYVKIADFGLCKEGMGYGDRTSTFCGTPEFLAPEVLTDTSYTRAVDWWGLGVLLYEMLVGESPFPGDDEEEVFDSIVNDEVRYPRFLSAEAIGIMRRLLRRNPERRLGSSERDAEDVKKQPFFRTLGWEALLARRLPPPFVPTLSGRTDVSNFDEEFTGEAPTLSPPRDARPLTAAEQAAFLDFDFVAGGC
Chain of IRAK1 (human) (P51617 whole entry, looked up): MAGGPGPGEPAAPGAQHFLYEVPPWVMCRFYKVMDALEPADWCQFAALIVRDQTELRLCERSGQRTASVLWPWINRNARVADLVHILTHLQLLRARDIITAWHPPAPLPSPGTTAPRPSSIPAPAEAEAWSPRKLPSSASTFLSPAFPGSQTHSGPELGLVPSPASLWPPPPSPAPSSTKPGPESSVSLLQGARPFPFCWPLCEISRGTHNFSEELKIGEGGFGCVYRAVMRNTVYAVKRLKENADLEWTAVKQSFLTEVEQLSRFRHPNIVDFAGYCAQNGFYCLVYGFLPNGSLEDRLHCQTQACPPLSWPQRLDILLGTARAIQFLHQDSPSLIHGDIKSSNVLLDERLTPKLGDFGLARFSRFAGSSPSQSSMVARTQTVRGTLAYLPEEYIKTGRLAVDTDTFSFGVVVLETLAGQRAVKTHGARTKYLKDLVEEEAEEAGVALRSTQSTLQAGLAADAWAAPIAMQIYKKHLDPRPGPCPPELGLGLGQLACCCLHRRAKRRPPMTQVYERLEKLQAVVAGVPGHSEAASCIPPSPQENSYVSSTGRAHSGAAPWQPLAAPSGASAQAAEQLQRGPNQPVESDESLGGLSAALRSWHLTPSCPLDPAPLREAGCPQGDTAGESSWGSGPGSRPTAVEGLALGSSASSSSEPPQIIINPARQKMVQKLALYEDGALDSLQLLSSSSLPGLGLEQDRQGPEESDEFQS
Chain of RIPK2 (human) (O43353 whole entry, looked up): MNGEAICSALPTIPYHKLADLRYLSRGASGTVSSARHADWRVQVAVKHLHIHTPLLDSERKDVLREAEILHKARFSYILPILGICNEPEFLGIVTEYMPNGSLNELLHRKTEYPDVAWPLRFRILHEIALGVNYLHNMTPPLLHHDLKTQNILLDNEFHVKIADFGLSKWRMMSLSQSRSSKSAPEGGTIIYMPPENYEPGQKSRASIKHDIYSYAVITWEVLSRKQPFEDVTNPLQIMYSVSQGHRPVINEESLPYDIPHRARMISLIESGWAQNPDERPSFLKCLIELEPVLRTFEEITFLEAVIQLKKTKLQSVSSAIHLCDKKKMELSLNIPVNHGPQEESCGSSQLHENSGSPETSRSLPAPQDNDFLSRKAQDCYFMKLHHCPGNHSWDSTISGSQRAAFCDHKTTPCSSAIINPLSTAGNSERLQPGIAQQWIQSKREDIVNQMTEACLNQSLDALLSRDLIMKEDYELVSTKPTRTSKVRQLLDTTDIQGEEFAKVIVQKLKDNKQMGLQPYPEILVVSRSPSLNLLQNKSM
Chain of NEK9 (human) (Q8TD19 whole entry, looked up): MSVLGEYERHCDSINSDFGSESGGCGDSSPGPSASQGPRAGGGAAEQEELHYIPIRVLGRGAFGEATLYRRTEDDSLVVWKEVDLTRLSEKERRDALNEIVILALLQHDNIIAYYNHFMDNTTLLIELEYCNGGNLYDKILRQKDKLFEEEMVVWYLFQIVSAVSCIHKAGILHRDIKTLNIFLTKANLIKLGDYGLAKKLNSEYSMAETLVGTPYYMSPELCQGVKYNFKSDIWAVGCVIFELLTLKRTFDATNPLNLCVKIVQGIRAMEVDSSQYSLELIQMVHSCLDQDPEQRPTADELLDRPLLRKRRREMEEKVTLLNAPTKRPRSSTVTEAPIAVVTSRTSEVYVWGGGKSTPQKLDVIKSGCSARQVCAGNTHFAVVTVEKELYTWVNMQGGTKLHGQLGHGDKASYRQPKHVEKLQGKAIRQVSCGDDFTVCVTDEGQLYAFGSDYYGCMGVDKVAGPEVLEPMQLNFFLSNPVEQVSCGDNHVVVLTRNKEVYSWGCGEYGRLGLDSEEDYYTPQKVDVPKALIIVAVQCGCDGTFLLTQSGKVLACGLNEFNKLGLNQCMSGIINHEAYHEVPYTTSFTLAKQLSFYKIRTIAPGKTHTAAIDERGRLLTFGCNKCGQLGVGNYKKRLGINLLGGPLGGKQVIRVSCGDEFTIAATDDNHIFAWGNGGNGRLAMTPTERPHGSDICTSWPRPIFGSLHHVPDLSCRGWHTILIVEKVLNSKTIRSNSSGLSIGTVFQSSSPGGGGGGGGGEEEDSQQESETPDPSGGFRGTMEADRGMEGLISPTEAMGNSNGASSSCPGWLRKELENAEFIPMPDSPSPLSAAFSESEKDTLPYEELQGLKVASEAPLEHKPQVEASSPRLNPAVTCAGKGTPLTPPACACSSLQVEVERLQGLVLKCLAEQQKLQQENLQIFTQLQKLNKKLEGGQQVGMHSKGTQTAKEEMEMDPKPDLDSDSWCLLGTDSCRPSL
Chain of PRKD1 (human) (Q15139 whole entry, looked up): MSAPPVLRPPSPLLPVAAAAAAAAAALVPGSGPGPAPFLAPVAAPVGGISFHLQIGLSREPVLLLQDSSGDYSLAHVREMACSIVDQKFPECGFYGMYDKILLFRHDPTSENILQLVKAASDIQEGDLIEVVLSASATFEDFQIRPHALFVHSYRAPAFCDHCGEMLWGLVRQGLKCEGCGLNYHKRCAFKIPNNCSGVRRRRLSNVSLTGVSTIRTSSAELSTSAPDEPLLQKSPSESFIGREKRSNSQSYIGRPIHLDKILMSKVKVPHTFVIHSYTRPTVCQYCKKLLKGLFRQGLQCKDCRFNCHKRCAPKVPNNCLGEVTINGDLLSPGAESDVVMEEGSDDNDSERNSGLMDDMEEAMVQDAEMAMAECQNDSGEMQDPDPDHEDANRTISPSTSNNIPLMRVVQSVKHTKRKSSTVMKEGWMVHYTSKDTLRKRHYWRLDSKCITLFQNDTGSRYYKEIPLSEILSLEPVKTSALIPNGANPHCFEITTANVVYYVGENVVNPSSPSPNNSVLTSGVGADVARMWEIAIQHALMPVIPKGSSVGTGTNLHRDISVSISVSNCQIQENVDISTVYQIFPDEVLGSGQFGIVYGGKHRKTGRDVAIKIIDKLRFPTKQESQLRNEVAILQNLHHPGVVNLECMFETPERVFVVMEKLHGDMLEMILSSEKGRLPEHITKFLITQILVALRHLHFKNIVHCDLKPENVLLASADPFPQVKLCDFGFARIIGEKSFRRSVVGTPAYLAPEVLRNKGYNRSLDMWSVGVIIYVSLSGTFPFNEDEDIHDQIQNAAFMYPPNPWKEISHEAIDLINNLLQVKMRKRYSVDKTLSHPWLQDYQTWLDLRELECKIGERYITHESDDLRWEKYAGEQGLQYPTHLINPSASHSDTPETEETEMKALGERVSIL
Chain of RIOK1 (human) (Q9BRS2 whole entry, looked up): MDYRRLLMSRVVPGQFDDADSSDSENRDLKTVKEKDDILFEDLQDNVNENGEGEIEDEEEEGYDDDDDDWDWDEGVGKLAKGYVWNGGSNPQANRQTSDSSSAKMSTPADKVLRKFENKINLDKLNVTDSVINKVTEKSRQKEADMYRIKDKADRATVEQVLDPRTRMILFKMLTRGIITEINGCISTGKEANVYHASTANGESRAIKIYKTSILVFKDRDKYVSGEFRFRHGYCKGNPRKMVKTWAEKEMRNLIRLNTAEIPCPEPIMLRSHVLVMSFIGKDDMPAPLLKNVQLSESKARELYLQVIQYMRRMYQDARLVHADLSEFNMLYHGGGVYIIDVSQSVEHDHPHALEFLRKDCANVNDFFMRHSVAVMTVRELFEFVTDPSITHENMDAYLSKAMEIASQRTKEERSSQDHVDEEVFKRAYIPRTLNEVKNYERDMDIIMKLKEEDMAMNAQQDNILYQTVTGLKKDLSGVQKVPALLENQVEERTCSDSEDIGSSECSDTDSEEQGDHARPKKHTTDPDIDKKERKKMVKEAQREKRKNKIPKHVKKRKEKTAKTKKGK

Q: With `O=c1[nH]c2ccccc2n1C1CCN(Cc2ccc(-c3nc4cc5[nH]cnc5cc4nc3-c3ccccc3)cc2)CC1` as the compound, how does the kinase still bound, per cent of control (ACVR2A (human)) read?
A: 88%

Q: What about the kinase still bound, per cent of control (ANKK1 (human)) of the same compound?
A: 73%

Q: What about the kinase still bound, per cent of control (AURKC (human)) of the same compound?
A: 88%

Q: What about the kinase still bound, per cent of control (CAMK2D (human)) of the same compound?
A: 100%

Q: And the kinase still bound, per cent of control (CDKL1 (human))?
A: 84%

Q: What about the kinase still bound, per cent of control (CPK1 (P.falciparum)) of the same compound?
A: 40%

Q: What about the kinase still bound, per cent of control (DDR1 (human)) of the same compound?
A: 86%

Q: What about the kinase still bound, per cent of control (DSTYK (human)) of the same compound?
A: 76%

Q: What about the kinase still bound, per cent of control (DYRK1B (human)) of the same compound?
A: 88%

Q: And the kinase still bound, per cent of control [1]?
A: 77%

Q: And the kinase still bound, per cent of control (EPHB6 (human))?
A: 69%

Q: What about the kinase still bound, per cent of control (FLT1 (human)) of the same compound?
A: 89%

Q: And the kinase still bound, per cent of control (FLT4 (human))?
A: 100%

Q: And the kinase still bound, per cent of control (HIPK4 (human))?
A: 72%

Q: What about the kinase still bound, per cent of control (IRAK1 (human)) of the same compound?
A: 76%

Q: What about the kinase still bound, per cent of control (KDR (human)) of the same compound?
A: 86%

Q: What about the kinase still bound, per cent of control (LIMK2 (human)) of the same compound?
A: 100%

Q: And the kinase still bound, per cent of control (LRRK2 (human))?
A: 100%

Q: What about the kinase still bound, per cent of control (MAP2K2 (human)) of the same compound?
A: 75%

Q: And the kinase still bound, per cent of control (MAP2K4 (human))?
A: 94%

Q: And the kinase still bound, per cent of control (MAP2K7 (human))?
A: 80%

Q: And the kinase still bound, per cent of control (MAP3K4 (human))?
A: 78%

Q: What about the kinase still bound, per cent of control (MAPK3 (human)) of the same compound?
A: 100%

Q: And the kinase still bound, per cent of control (MAPK8 (human))?
A: 79%

Q: What about the kinase still bound, per cent of control (MKNK2 (human)) of the same compound?
A: 81%

Q: What about the kinase still bound, per cent of control (NEK9 (human)) of the same compound?
A: 88%

Q: And the kinase still bound, per cent of control (PAK7 (human))?
A: 58%

Q: What about the kinase still bound, per cent of control (PIK3C2G (human)) of the same compound?
A: 75%

Q: What about the kinase still bound, per cent of control (PIK3CG (human)) of the same compound?
A: 25%

Q: What about the kinase still bound, per cent of control (PKN1 (human)) of the same compound?
A: 100%

Q: And the kinase still bound, per cent of control (PRKAA1 (human))?
A: 72%

Q: And the kinase still bound, per cent of control (PRKAA2 (human))?
A: 95%

Q: What about the kinase still bound, per cent of control (PRKCI (human)) of the same compound?
A: 79%

Q: And the kinase still bound, per cent of control (PRKD1 (human))?
A: 86%

Q: And the kinase still bound, per cent of control (RIOK1 (human))?
A: 76%

Q: And the kinase still bound, per cent of control (RIPK2 (human))?
A: 64%

Q: What about the kinase still bound, per cent of control (SRPK2 (human)) of the same compound?
A: 85%

Q: And the kinase still bound, per cent of control (TNK2 (human))?
A: 100%

Q: What about the kinase still bound, per cent of control (TYRO3 (human)) of the same compound?
A: 73%

Q: What about the kinase still bound, per cent of control (YES1 (human)) of the same compound?
A: 100%
